Experimental data taken from US20240279278A1, “NMU RECEPTOR 2 AGONISTS” (Boehringer Ingelheim International GmbH, priority 2023, published 2024).
Starred links: 1 amine or outer side, 2 acyl side, 3 side chain; linkers in the order of their positions; H or OH if unused. Non-standard residues stand in square brackets, D forms with d. Residues, ends and D or L forms follow the SMILES beside them. *: point of attachment. Pipz(1-CH2CO,4-CH2CH2NH) = O=C(CN1CCN(CCN[*:1])CC1)[*:2]; C18 diacid = O=C(O)CCCCCCCCCCCCCCCCC(=O)*; γGlu = O=C(O)[C@H](CCC(=O)[*:2])N[*:1]; 2Pal = N[C@@H](Cc1ccccn1)C(=O)O; NMeL = CN[C@@H](CC(C)C)C(=O)O; NMeA = CN[C@@H](C)C(=O)O; Nle = CCCC[C@H](N)C(=O)O; Sar = CNCC(=O)O

Key:
Type in all cases: cell-based
[1] = target: T1, human NMUR1 receptor (Homo sapiens, UniProt Q9HB89); experiment: IP1 Gq HTRF assay, activation of human NMUR1 in buffer; settings: CHO-K1 cells expressing human NMUR1, stimulation buffer with 0.1% BSA; read-out: EC50 (hNMUR1) buffer
T1 construct: expressed in transfected cells; host or cells: CHO-K1
T1 sequence (Q9HB89 1-426): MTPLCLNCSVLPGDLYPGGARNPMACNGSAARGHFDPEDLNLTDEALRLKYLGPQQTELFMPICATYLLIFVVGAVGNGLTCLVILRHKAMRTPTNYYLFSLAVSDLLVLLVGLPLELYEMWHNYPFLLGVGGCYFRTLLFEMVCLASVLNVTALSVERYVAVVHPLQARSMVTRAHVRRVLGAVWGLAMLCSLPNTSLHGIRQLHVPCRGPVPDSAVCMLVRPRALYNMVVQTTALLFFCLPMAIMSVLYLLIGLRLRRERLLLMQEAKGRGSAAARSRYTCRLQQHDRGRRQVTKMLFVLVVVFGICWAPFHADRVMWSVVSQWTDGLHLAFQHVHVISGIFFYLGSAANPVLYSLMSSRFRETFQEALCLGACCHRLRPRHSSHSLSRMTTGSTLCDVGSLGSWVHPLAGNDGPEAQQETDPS
How it was run: (§1)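 IP-One HTRF competition (665/620 nm ratio) read after 1 h agonist exposure at 37 °C in pH 7.4 HEPES/HBSS stimulation buffer containing 50 mM LiCl, 0.1% BSA, 1% DMSO. Cells: CHO-K1 stably expressing human NMUR2 or NMUR1. EC50 by 4-parameter nonlinear regression of 8-point curves.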

[2] = target: T2, human NMUR2 receptor (Homo sapiens, UniProt Q9GZQ4); experiment: IP1 Gq HTRF assay, activation of human NMUR2 in buffer; design: expressed in transfected cells; host or cells: CHO-K1; settings: CHO-K1 cells expressing human NMUR2, stimulation buffer with 0.1% BSA; read-out: EC50 (hNMUR2) buffer
T2 sequence (Q9GZQ4 whole entry): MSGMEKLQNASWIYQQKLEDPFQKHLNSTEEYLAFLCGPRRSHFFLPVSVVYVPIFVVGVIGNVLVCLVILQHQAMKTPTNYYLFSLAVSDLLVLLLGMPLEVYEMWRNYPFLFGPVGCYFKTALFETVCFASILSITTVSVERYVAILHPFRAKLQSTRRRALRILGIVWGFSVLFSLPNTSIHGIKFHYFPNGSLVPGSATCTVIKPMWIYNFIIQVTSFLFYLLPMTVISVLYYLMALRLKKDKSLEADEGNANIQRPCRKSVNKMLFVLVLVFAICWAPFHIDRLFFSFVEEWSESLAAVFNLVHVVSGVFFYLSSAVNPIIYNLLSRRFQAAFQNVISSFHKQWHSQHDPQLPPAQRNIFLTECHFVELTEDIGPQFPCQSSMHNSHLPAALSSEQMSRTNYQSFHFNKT
How it was run: as §1

[3] = target: T2, human NMUR2 receptor; experiment: IP1 Gq HTRF assay, activation of human NMUR2 in human plasma; design: expressed in transfected cells; host or cells: CHO-K1; settings: CHO-K1 cells expressing human NMUR2, 100% human plasma; read-out: EC50 (hNMUR2) human plasma
How it was run: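 EC50 obtained via 4-parameter sigmoidal regression of HTRF IP-One signal (665 nm/620 nm), which falls as intracellular IP1 rises. Stimulation: 1 h, 37° C, peptides in human plasma plus 50 mM LiCl, 1% DMSO final, on NMUR2-expressing CHO-K1 cells, 8 concentrations.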

Row | SMILES | EC50 [1] | EC50 [2] | EC50 [3]
1 | CCCC[C@H](NC(=O)[C@H](CC(C)C)N(C)C(=O)[C@H](Cc1ccccc1)NC(=O)[C@H](Cc1ccc(O)cc1)NC(=O)CN1CCN(CCNC(=O)CN(C)C(=O)CN(C)C(=O)CN(C)C(=O)CN(C)C(=O)CN(C)C(=O)CN(C)C(=O)CN(C)C(=O)CN(C)C(=O)CN(C)C(=O)CN(C)C(=O)CN(C)C(=O)CN(C)C(=O)CN(C)C(=O)CN(C)C(=O)CN(C)C(=O)CC[C@H](NC(=O)CC[C@H](NC(=O)CC[C@H](NC(=O)CCCCCCCCCCCCCCCCC(=O)O)C(=O)O)C(=O)O)C(=O)O)CC1)C(=O)N[C@@H](CCCCN)C(=O)N(C)[C@@H](C)C(=O)N[C@@H](CCCNC(=N)N)C(=O)NCC(N)=O [Compound 47, C18DA-gGlu3-Sar15-AEPipAc-Tyr-Phe-NMeLeu-Nle-Lys-NMeAla-Arg-Gly-NH2] (HELM PEPTIDE1{[O=C(O)CCCCCCCCCCCCCCCCC(=O)[*:2]].[gGlu].[gGlu].[gGlu].[Sar].[Sar].[Sar].[Sar].[Sar].[Sar].[Sar].[Sar].[Sar].[Sar].[Sar].[Sar].[Sar].[Sar].[Sar].[O=C(CN1CCN(CCN[*:1])CC1)[*:2]].Y.F.[meL].[Nle].K.[meA].R.G.[am]}$$$$V2.0) | > 1 µM | 0.0093 µM | 0.0326 µM
2 | CCCC[C@H](NC(=O)[C@H](CC(C)C)N(C)C(=O)[C@H](Cc1ccccc1)NC(=O)[C@H](Cc1ccc(O)cc1)NC(=O)CN1CCN(CCNC(=O)CN(C)C(=O)CN(C)C(=O)CN(C)C(=O)CN(C)C(=O)CN(C)C(=O)CN(C)C(=O)CN(C)C(=O)CN(C)C(=O)CN(C)C(=O)CN(C)C(=O)CN(C)C(=O)CN(C)C(=O)CN(C)C(=O)CN(C)C(=O)CN(C)C(=O)CC[C@H](NC(=O)CC[C@H](NC(=O)CC[C@H](NC(=O)CCCCCCCCCCCCCCCCC(=O)O)C(=O)O)C(=O)O)C(=O)O)CC1)C(=O)N[C@@H](Cc1ccccn1)C(=O)N(C)[C@@H](C)C(=O)N[C@@H](CCCNC(=N)N)C(=O)NCC(N)=O [Compound 48, C18DA-gGlu3-Sar15-AEPipAc-Tyr-Phe-NMeLeu-Nle-2Pal-NMeAla-Arg-Gly-NH2] ({C18 diacid-γGlu-γGlu-γGlu}-[Sar][Sar][Sar][Sar][Sar][Sar][Sar][Sar][Sar][Sar][Sar][Sar][Sar][Sar][Sar][Pipz(1-CH2CO,4-CH2CH2NH)]YF[NMeL][Nle][2Pal][NMeA]RG-NH2) | > 1 µM | > 1 µM | > 1 µM
3 | CCCC[C@H](NC(=O)[C@H](CC(C)C)N(C)C(=O)[C@H](Cc1ccccc1)NC(=O)[C@H](Cc1ccc(O)cc1)NC(=O)CN1CCN(CCNC(=O)CN(C)C(=O)CN(C)C(=O)CN(C)C(=O)CN(C)C(=O)CN(C)C(=O)CN(C)C(=O)CN(C)C(=O)CN(C)C(=O)CN(C)C(=O)CN(C)C(=O)CN(C)C(=O)CN(C)C(=O)CN(C)C(=O)CN(C)C(=O)CN(C)C(=O)CC[C@H](NC(=O)CC[C@H](NC(=O)CC[C@H](NC(=O)CCCCCCCCCCCCCCCCCCC(=O)O)C(=O)O)C(=O)O)C(=O)O)CC1)C(=O)N[C@@H](CCCCN)C(=O)N1CCC[C@H]1C(=O)N[C@@H](CCCNC(=N)N)C(=O)NCC(N)=O [Compound 49, C20DA-gGlu3-Sar15-AEPipAc-Tyr-Phe-NMeLeu-Nle-Lys-Pro-Arg-Gly-NH2] (HELM PEPTIDE1{[O=C(O)CCCCCCCCCCCCCCCCCCC(=O)[*:2]].[gGlu].[gGlu].[gGlu].[Sar].[Sar].[Sar].[Sar].[Sar].[Sar].[Sar].[Sar].[Sar].[Sar].[Sar].[Sar].[Sar].[Sar].[Sar].[O=C(CN1CCN(CCN[*:1])CC1)[*:2]].Y.F.[meL].[Nle].K.P.R.G.[am]}$$$$V2.0) | 1.3 µM | 0.011 µM | 0.0252 µM
4 | CCCC[C@H](NC(=O)[C@H](CC(C)C)N(C)C(=O)[C@H](Cc1ccccc1)NC(=O)[C@H](Cc1ccc(O)cc1)NC(=O)CN1CCN(CCNC(=O)CN(C)C(=O)CN(C)C(=O)CN(C)C(=O)CN(C)C(=O)CN(C)C(=O)CN(C)C(=O)CN(C)C(=O)CN(C)C(=O)CN(C)C(=O)CN(C)C(=O)CN(C)C(=O)CN(C)C(=O)CN(C)C(=O)CN(C)C(=O)CN(C)C(=O)CC[C@H](NC(=O)CC[C@H](NC(=O)CC[C@H](NC(=O)CCCCCCCCCCCCCCCCCCC(=O)O)C(=O)O)C(=O)O)C(=O)O)CC1)C(=O)N[C@@H](CCCCN)C(=O)N(C)[C@@H](C)C(=O)N[C@@H](CCCNC(=N)N)C(=O)NCC(N)=O [Compound 50, C20DA-gGlu3-Sar15-AEPipAc-Tyr-Phe-NMeLeu-Nle-Lys-NMeAla-Arg-Gly-NH2] (HELM PEPTIDE1{[O=C(O)CCCCCCCCCCCCCCCCCCC(=O)[*:2]].[gGlu].[gGlu].[gGlu].[Sar].[Sar].[Sar].[Sar].[Sar].[Sar].[Sar].[Sar].[Sar].[Sar].[Sar].[Sar].[Sar].[Sar].[Sar].[O=C(CN1CCN(CCN[*:1])CC1)[*:2]].Y.F.[meL].[Nle].K.[meA].R.G.[am]}$$$$V2.0) | > 1 µM | 0.023 µM | 0.0699 µM
5 | CCCC[C@H](NC(=O)[C@H](CC(C)C)N(C)C(=O)[C@H](Cc1ccccc1)NC(=O)[C@H](Cc1ccc(O)cc1)NC(=O)CN1CCN(CCNC(=O)CN(C)C(=O)CN(C)C(=O)CN(C)C(=O)CN(C)C(=O)CN(C)C(=O)CN(C)C(=O)CN(C)C(=O)CN(C)C(=O)CN(C)C(=O)CN(C)C(=O)CN(C)C(=O)CN(C)C(=O)CN(C)C(=O)CN(C)C(=O)CN(C)C(=O)CC[C@H](NC(=O)CC[C@H](NC(=O)CC[C@H](NC(=O)CCCCCCCCCCCCCCCCC(=O)O)C(=O)O)C(=O)O)C(=O)O)CC1)C(=O)N[C@@H](Cc1c[nH]cn1)C(=O)N1CCC[C@H]1C(=O)N[C@@H](CCCNC(=N)N)C(=O)NCC(N)=O [Compound 51, C18DA-gGlu3-Sar15-AEPipAc-Tyr-Phe-NMeLeu-Nle-His-Pro-Arg-Gly-NH2] (HELM PEPTIDE1{[O=C(O)CCCCCCCCCCCCCCCCC(=O)[*:2]].[gGlu].[gGlu].[gGlu].[Sar].[Sar].[Sar].[Sar].[Sar].[Sar].[Sar].[Sar].[Sar].[Sar].[Sar].[Sar].[Sar].[Sar].[Sar].[O=C(CN1CCN(CCN[*:1])CC1)[*:2]].Y.F.[meL].[Nle].H.P.R.G.[am]}$$$$V2.0) | > 1 µM | 0.019 µM | 0.112 µM
6 | CCCC[C@H](NC(=O)[C@H](CC(C)C)N(C)C(=O)[C@H](Cc1ccccc1)NC(=O)[C@H](Cc1ccc(O)cc1)NC(=O)CN1CCN(CCNC(=O)CN(C)C(=O)CN(C)C(=O)CN(C)C(=O)CN(C)C(=O)CN(C)C(=O)CN(C)C(=O)CN(C)C(=O)CN(C)C(=O)CN(C)C(=O)CN(C)C(=O)CN(C)C(=O)CN(C)C(=O)CN(C)C(=O)CN(C)C(=O)CN(C)C(=O)CC[C@H](NC(=O)CC[C@H](NC(=O)CC[C@H](NC(=O)CCCCCCCCCCCCCCCCC(=O)O)C(=O)O)C(=O)O)C(=O)O)CC1)C(=O)N(C)[C@@H](CCCNC(=N)N)C(=O)N1CCC[C@H]1C(=O)N[C@@H](CCCNC(=N)N)C(=O)NCC(N)=O [Compound 52, C18DA-gGlu3-Sar15-AEPipAc-Tyr-Phe-NMeLeu-Nle-NMeArg-Pro-Arg-Gly-NH2] (HELM PEPTIDE1{[O=C(O)CCCCCCCCCCCCCCCCC(=O)[*:2]].[gGlu].[gGlu].[gGlu].[Sar].[Sar].[Sar].[Sar].[Sar].[Sar].[Sar].[Sar].[Sar].[Sar].[Sar].[Sar].[Sar].[Sar].[Sar].[O=C(CN1CCN(CCN[*:1])CC1)[*:2]].Y.F.[meL].[Nle].[meR].P.R.G.[am]}$$$$V2.0) | 0.2 µM | 0.0014 µM | 0.0064 µM
